For this assay, the target named is T1, human oxytocin receptor (Homo sapiens, UniProt P30559).
T1 sequence (P30559 1-389): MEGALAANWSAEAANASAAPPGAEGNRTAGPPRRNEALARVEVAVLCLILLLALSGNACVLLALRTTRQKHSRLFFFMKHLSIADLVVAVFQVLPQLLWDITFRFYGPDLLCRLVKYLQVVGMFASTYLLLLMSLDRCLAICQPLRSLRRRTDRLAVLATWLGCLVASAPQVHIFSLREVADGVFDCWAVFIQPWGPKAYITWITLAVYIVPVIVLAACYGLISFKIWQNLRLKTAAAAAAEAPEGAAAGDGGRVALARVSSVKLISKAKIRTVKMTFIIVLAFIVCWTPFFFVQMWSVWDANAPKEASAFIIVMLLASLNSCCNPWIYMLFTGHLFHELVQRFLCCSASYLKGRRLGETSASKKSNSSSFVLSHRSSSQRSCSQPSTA
As to the kind of experiment: Oxytocin binding in CHO cell membranes expressing human oxytocin receptors. To be noted: [3H]oxytocin; for inhibition at 0.1 µM / OT % inhibition at 100 nM: 100 nM; for inhibition at 0.1 µM: read-out: OT % inhibition at 100 nM; for IC50: value in parentheses, read-out: OT (IC50). From the text:
Oxytocin Binding in Chinese Hamster Ovary Cell Membranes Expressing Human Oxytocin Receptors
Chinese Hamster Ovary (CHO) cells stably transfected with the human oxytocin receptor (cf. Tanizawa et al., U.S. Pat. No. 5,466,584 (1995) to Rohto Pharmaceutical Co. Ltd., Osaka, Japan) were obtained from M. Thibonnier, Case Western Reserve University School of Medicine, Cleveland, Ohio. A. Passaging and Amplification of Cells: CHO cells transfected with the human oxytocin receptors obtained from M. Thibonnier (pcDNA3.1 vector) are allowed to grow to confluency (approx. >90%) in T-150 flasks under sterile conditions, in a cell culture medium of F-12 Nutrient Mixture (HAM) with L-glutamine (Gibco Cat. # 11765-054) containing 15 mM HEPES (Gibco Cat. # 15630-080), 1% antibiotic/antimycotic (add 5 mL 100×, Gibco Cat. # 15240-062 per 500 mL F-12), 400 μg/mL of Geneticin (add 4 mL of 50 mg/mL per 500 mL F-12) and 10% Fetal Bovine Serum (Qualified, heat inactivated, Gibco Cat. # 16140-063). The medium is removed by aspiration and the cells are washed with 10 mL of Hank's Balanced Salt solution (Gibco Cat. # 14175-095). The salt solution is removed by aspiration and the cells trypsinized with 5 mL of trypsin-EDTA (0.05% trypsin, 0.53 mM EDTA-4Na, Gibco Cat. # 25300-070) for 1 min The trypsin is removed by aspiration and the cells dislodged by tapping. Cell Culture medium (e.g. 30 mL for 1:30 split) is immediately added and mixed well to inactivate trypsin. 1 mL of detached cells is added to new culture flasks containing fresh Cell Culture medium (e.g. into 25 mL per T-150 flask), and mixed gently. The cells are incubated at 37° C. in 5% CO2. The medium is changed at 3 to 4 days interval (or as appropriate). The cells grow to confluency (approx. >75%–95%) within 7–8 days. All steps are done under sterile conditions. B. Membrane Preparation: The cells are washed twice gently with Hank's Balanced Salt solution (eg, use 10 mL per T-150 flask). The excess solution is removed and the cells bathed for 15–30 min. in an enzyme-free Cell Dissociation Buffer (eg, use 8 mL Hank's Based, Gibco Cat. # 13150-016 per T-150 flask) until cells are loosened. The contents are transferred to centrifuge tubes (50 mL size) kept in ice bath. All subsequent steps are done at 4° C. The tubes are centrifuged at 300×g for 15 min (1380 rpm on SORVAL, Model RT6000D, using rotor for 50 mL tubes). The supernatant is discarded and the cells suspended in homogenizing buffer (10 mM Tris-HCl containing 0.25 M sucrose and 1 mM EDTA, pH 7.4) ensuring that the volume of the buffer is about ten times the volume of the cell pellet. The cells are pooled into a centrifuge tube (50 mL) and homogenized with a Polytron at setting 6 for 10 sec. The homogenate is transferred into a Potter-Elvjehm homogenizer and homogenized with 3 strokes. The homogenate is centrifuged at 1500×g for 10 min at 4° C. (3100 rpm using SORVAL, model RT6000D, using rotor for 50 mL tubes). The pellet is discarded. The supernatant is centrifuged at 100,000×g for 60 min. at 4° C. (Beckman L8-80M ultracentrifuge; spin at 37,500 rpm with rotor type 70 Ti for 50 mL tubes; 38,000 rpm with type 80Ti for 15 mL tubes; or 35,800 rpm with rotor type 45Ti). The supernantant is discarded and the pellet suspended in 3 to 4 mL of Tris buffer (50 mM TRIS-HCl, pH 7.4). The protein content is estimated by the Bradford or Lowry method. The volume of the membrane suspension is adjusted with the membrane buffer (50 mM Tris-HCl containing 0.1% BSA and 0.1 mM PMSF) to give 3.0 mg/mL (or as appropriate) of protein. The membranes are aliquoted and stored at −70° C. C. Radioligand Binding Assay: In wells of a 96-well format microtiter plate, is added 90, 110 or 130 μL (to make up a final volume of 200 μL) of assay buffer containing 50 mM of Tris-HCl (pH 7.4), […], 1 mg % aprotinin, 1 mg % leupeptin, 2 mg % 1,10-phenanthroline, 10 mg % trypsin inhibitor, and 0.1 mM PMSF. […]

The structures appear in SMILES notation.

As to `O=C(c1ccc(C2CCCCC2)cc1)N1Cc2ccc(C(=O)n3ccnc3)n2Cc2ccccc21` [Example 56, 1H-Imidazol-1-yl-[10-(4-cyclohexyl-benzoyl)-10,11-dihydro-5H-pyrrolo[2,1-c][1,4]benzodiazepin-3-yl]-methanone], the inhibition at 0.1 µM amounted to 61%.
On to `O=C(NNC(=O)C1CC1)c1ccc2n1Cc1ccccc1N(C(=O)c1ccc(C3CCCCC3)cc1)C2` [Example 13, 10-(4-Cyclohexyl-benzoyl)-N′-(cyclopropylcarbonyl)-10,11-dihydro-5H-pyrrolo[2,1-c][1,4]benzodiazepine-3-carbonyl-hydrazide], for which the “OT % inhibition at 100 nM” value came to 73%.
As to `CN(CCc1ccncc1)C(=O)c1ccc2n1Cc1ccccc1N(C(=O)c1ccc(C3CCCCC3)cc1)C2` [Example 55, 10-(4-Cyclohexyl-benzoyl)-N-methyl-N-[2(4-pyridinyl)ethyl]-10,11-dihydro-5H-pyrrolo[2,1-c][1,4]benzodiazepine-3-carboxamide], the inhibition at 0.1 µM came out at 91%.
For `Cc1ccccc1N1CCN(C(=O)c2ccc3n2Cc2ccccc2N(C(=O)c2ccc(C4CCCCC4)cc2)C3)CC1` [Example 27, [10-(4-Cyclohexyl-benzoyl)-10,11-dihydro-5H-pyrrolo[2,1-c][1,4]benzodiazepin-3-yl][4-(2-methylphenyl)-1-piperazinyl]-methanone], the inhibition at 0.1 µM was 44%.
Take `O=C(C(=O)N1CCC(N2CCCCC2)CC1)c1ccc2n1Cc1ccccc1N(C(=O)c1ccc(C3CCCCC3)cc1)C2` [Example 31, 1-[1.4′]Bipiperidinyl-1′-yl-2-[10-(4-cyclohexyl-benzoyl)-10,11-dihydro-5H-pyrrolo[2,1-c][1,4]benzodiazepin-3-yl]-ethane-1,2-dione]: the “OT % inhibition at 100 nM” value is reported as 89%.
For the compound `CN(C)NC(=O)c1ccc2n1Cc1ccccc1N(C(=O)c1ccc(C3CCCCC3)cc1)C2` [Example 19, 10-(4-Cyclohexyl-benzoyl)-N′-N′-dimethyl-10,11-dihydro-5H-pyrrolo[2,1-c][1,4]benzodiazepine-3-carbohydrazide], the IC50 was 0.13 µM.
`O=C(NCc1ccccn1)c1ccc2n1Cc1ccccc1N(C(=O)c1ccc(C3CCCCC3)cc1)C2` [Example 50, 10-(4-Cyclohexyl-benzoyl)-N-(2-pyridinylmethyl)-10,11-dihydro-5H-pyrrolo[2,1-c][1,4]benzodiazepine-3-carboxamide]: the inhibition at 0.1 µM is -8%.
Consider `O=C(NCc1ccncc1)c1ccc2n1Cc1ccccc1N(C(=O)c1ccc(C3CCCCC3)cc1)C2` [Example 53, 10-(4-Cyclohexyl-benzoyl)-N-(4-pyridinylmethyl)-10,11-dihydro-5H-pyrrolo[2,1-c][1,4]benzodiazepine-3-carboxamide], for which the inhibition at 0.1 µM turned out to be 25%.
Still for that read-out and setting: the value for `CN1CCC(N(C)C(=O)c2ccc3n2Cc2ccccc2N(C(=O)c2ccc(C4CCCCC4)cc2)C3)C1` (centres unmarked) [Example 40, 10-(4-Cyclohexyl-benzoyl)-N-methyl-N-(1-methyl-3-pyrrolidinyl)-10,11-dihydro-5H-pyrrolo[2,1-c][1,4]benzodiazepine-3-carboxamide] was 60%.
For the compound `CN(C)/C=N/C(=O)c1ccc2n1Cc1ccccc1N(C(=O)c1ccc(C3CCCCC3)cc1)C2` [Example 17], the IC50 was determined as 0.0514 µM.
For the compound `O=C(NCCN1CCCCC1)c1ccc2n1Cc1ccccc1N(C(=O)c1ccc(C3CCCCC3)cc1)C2` [Example 37, 10-(4-Cyclohexyl-benzoyl)-N-[2-(1-piperidinyl)ethyl]-10,11-dihydro-5H-pyrrolo[2,1-c][1,4]benzodiazepine-3-carboxamide], the inhibition at 0.1 µM came to 61%.
Take `O=C(NCCc1ccccn1)c1ccc2n1Cc1ccccc1N(C(=O)c1ccc(C3CCCCC3)cc1)C2` [Example 49, 10-(4-Cyclohexyl-benzoyl)-N-[2-(2-pyridinyl)ethyl]-10,11-dihydro-5H-pyrrolo[2,1-c][1,4]benzodiazepine-3-carboxamide]: the inhibition at 0.1 µM was -2%.
For the compound `CC(=O)c1ccc2n1Cc1ccccc1N(C(=O)c1ccc(C3CCCCC3)cc1)C2` [Example 6, 1-[10-(4-Cyclohexyl-benzoyl)-10,11-dihydro-5H-pyrrolo[2,1-c][1,4]benzodiazepin-3-yl]-ethanone], the concentration for half-maximal inhibition (IC50) was 0.105 µM.
Take `O=C(c1ccc2n1Cc1ccccc1N(C(=O)c1ccc(C3CCCCC3)cc1)C2)N1CCN(c2ccccn2)CC1` [Example 28, [10-(4-Cyclohexyl-benzoyl)-10,11-dihydro-5H-pyrrolo[2,1-c][1,4]benzodiazepine 3-yl][4-(2-pyridinyl)-1-piperazinyl]-methanone]: the half-inhibitory concentration (IC50) was 0.111 µM.
In the case of `O=C(c1ccc2n1Cc1ccccc1N(C(=O)c1ccc(C3CCCCC3)cc1)C2)N1CCN(CCO)CC1` [Example 48, [10-(4-Cyclohexyl-benzoyl)-10,11-dihydro-5H-pyrrolo[2,1-c][1,4]benzodiazepin-3-y][4-(2-hydroxyethyl)-1-piperazinyl]methanone], the “OT % inhibition at 100 nM” value is listed as 78%.
With `O=C(c1ccc(C2CCCCC2)cc1)N1Cc2ccc(C(=O)C(Cl)(Cl)Cl)n2Cc2ccccc21` [Example 7, 2,2,2-Trichloro-1-[10-(4-cyclohexyl-benzoyl)-10,11-dihydro-5H-pyrrolo[2,1-c][1,4]benzodiazepin-3-yl]-1-ethanone], the inhibition at 0.1 µM is 12%.
As for `C/C(=N\C(=O)c1ccc2n1Cc1ccccc1N(C(=O)c1ccc(C3CCCCC3)cc1)C2)N(C)C` [Example 18], the IC50 was determined as 0.00436 µM.
On the same count and under the same terms, the result for `O=C(c1ccc2n1Cc1ccccc1N(C(=O)c1ccc(C3CCCCC3)cc1)C2)N1CCC(N2CCCCC2)CC1` [Example 26, [1,4′]Bipiperidinyl-1′-yl-[10-(4-cyclohexyl-benzoyl)-10,11-dihydro-5H-pyrrolo[2,1-c][1,4]benzodiazepin-3-yl]-methanone] reads 0.0197 µM.
As for `CN(C)[C@@H]1CCN(C(=O)c2ccc3n2Cc2ccccc2N(C(=O)c2ccc(C4CCCCC4)cc2)C3)C1` [Example 47, [10-(4-Cyclohexyl-benzoyl)-10,11-dihydro-5H-pyrrolo[2,1-C][1,4]benzodiazepin-3-yl][(3R)-3-(dimethylamino)pyrrolidinyl]methanone], the “OT % inhibition at 100 nM” value was determined as 82%.
In the case of `CN1CCC(N(C)C(=O)c2ccc3n2Cc2ccccc2N(C(=O)c2ccc(C4CCCCC4)cc2)C3)CC1` [Example 39, 10-(4-Cyclohexyl-benzoyl)-N-methyl-N-(1-methyl-4-piperidinyl)-10,11-dihydro-5H-pyrrolo[2,1-c][1,4]benzodiazepine-3-carboxamide], the inhibition at 0.1 µM worked out at 85%.

The values are drawn from US7202239B2, “Cyclohexylphenyl carboxamides tocolytic oxytocin receptor antagonists” (Wyeth, priority 2001, dated 2007).
